From patent US6737383B1, “Herbicidal oxadiazolidines” (priority 1999, dated 2004)

How the values were obtained:
cocklebur = experiment: Test B pre/postemergence cocklebur; type: in vivo, Xanthium strumarium
Procedure, shortened: (§1)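 Test chemicals in a non-phytotoxic solvent mixture with surfactant were sprayed preemergence onto planted seeds and postemergence onto plants 2 to 18 cm tall (1- to 4-leaf stage). After twelve to sixteen days in a greenhouse, injury was visually rated against untreated controls from 0 (no effect) to 10 (complete control).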

rape = experiment: Test B pre/postemergence rape; type: in vivo, Brassica napus
Procedure, shortened: as §1

rice = experiment: Test B flood test rice; type: in vivo, Oryza sativa
Procedure, shortened: (§2)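 Each value is a visual injury score relative to controls, with 10 meaning complete control and 0 no effect. Evaluation took place twelve to sixteen days after the 2-leaf-stage plants were treated and kept in the greenhouse.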

purple nutsedge = experiment: Test B pre/postemergence purple nutsedge; type: in vivo, Cyperus rotundus
Procedure, shortened: as §1

duck salad = experiment: Test B flood test duck salad; type: in vivo, Heteranthera limosa
Procedure, shortened: as §2

smallflower flatsedge = experiment: Test B flood test smallflower flatsedge; type: in vivo, Cyperus difformis
Procedure, shortened: as §2

wheat = experiment: Test B pre/postemergence wheat; type: in vivo, Triticum aestivum
Procedure, shortened: as §1

wild oat = experiment: Test B pre/postemergence wild oat; type: in vivo, Avena fatua
Procedure, shortened: as §1

corn = experiment: Test B pre/postemergence corn; type: in vivo, Zea mays
Procedure, shortened: as §1

bedstraw = experiment: Test B pre/postemergence bedstraw; type: in vivo, Galium aparine
Procedure, shortened: as §1

bamyardgrass = experiment: Test B flood test barnyardgrass; type: in vivo, Echinochloa crus-galli
Procedure, shortened: as §2

blackgrass = experiment: Test B pre/postemergence blackgrass; type: in vivo, Alopecurus myosuroides
Procedure, shortened: as §1

surinam grass = experiment: Test B pre/postemergence surinam grass; type: in vivo, Brachiaria decumbens
Procedure, shortened: as §1

velvetleaf = experiment: Test B pre/postemergence velvetleaf; type: in vivo, Abutilon theophrasti
Procedure, shortened: as §1

soybean = experiment: Test B pre/postemergence soybean; type: in vivo, Glycine max
Procedure, shortened: as §1

crabgrass = experiment: Test B pre/postemergence crabgrass; type: in vivo, Digitaria sanguinalis
Procedure, shortened: as §1

sugar beet = experiment: Test B pre/postemergence sugar beet; type: in vivo, Beta vulgaris
Procedure, shortened: as §1

[1] = Postemergence, Rate 62 g/ha, scale 0 to 10, 0 is no effect, 10 is complete control
[2] = Postemergence, Rate 250 g/ha, scale 0 to 10, 0 no effect, 10 complete control
[3] = Preemergence, Rate 62 g/ha, scale 0 to 10, 0 is no effect, 10 is complete control
[4] = Preemergence, Rate 125 g/ha, scale 0 to 10 (0 no effect, 10 complete control)
[5] = Preemergence, Rate 250 g/ha, scale of 0 to 10 where 0 is no effect and 10 is complete control
[6] = Preemergence, Rate 500 g/ha, scale 0 (no effect) to 10 (complete control)
[7] = Rate 125 g/ha, Postemergence, scale 0 to 10, 0 no effect, 10 complete control
[8] = Rate 500 g/ha, Postemergence, 0 to 10 scale (0 no effect, 10 complete control)
[9] = Rate 125 g/ha, Postemergence section (flood test species), scale 0 to 10, 0 no effect, 10 complete control
[10] = Rate 500 g/ha, Postemergence section of Table B, 0 to 10 scale (0 no effect, 10 complete control)
[11] = flood test, listed under Postemergence, Rate 250 g/ha, scale 0 to 10, 0 no effect, 10 complete control

For `CC(C)Oc1cc(-n2c(=O)on(C(=O)N(c3ccc(F)cc3)C(C)C)c2=O)c(Cl)cc1Cl` [Compound 43], the “Cocklebur plant response rating” value (cocklebur; [1]) was 0, the “Cocklebur plant response rating” value (cocklebur; [2]) was 0 and the “Plant response rating, Cocklebur” value (cocklebur; [3]) was 0. The “Plant response rating, Cocklebur” value (cocklebur; [4]) was 0, the “Plant response rating, Cocklebur” value (cocklebur; [5]) was 0 and the “Cocklebur plant response rating” value (cocklebur; [6]) was 0. The “Cocklebur plant response rating” value (cocklebur; [7]) was 0, the “Cocklebur plant response rating” value (cocklebur; [8]) was 1 and the “Rape plant response rating” value (rape; [1]) was 0. For the same molecule, the “Rape plant response rating” value (rape; [2]) was 0, the “Plant response rating, Rape” value (rape; [3]) was 0 and the “Plant response rating, Rape” value (rape; [4]) was 0. For the same molecule, the “Plant response rating, Rape” value (rape; [5]) was 0, the “Rape plant response rating” value (rape; [6]) was 0 and the “Rape plant response rating” value (rape; [7]) was 0. The “Rice plant response rating” value (rice; [1]) was 0, the “Rice plant response rating” value (rice; [9]) was 0 and the “Rice plant response rating” value (rice; [10]) was 0. For the same molecule, the “Rice plant response rating” value (rice; [11]) was 0, the “Nutsedge plant response rating” value (purple nutsedge; [1]) was 0 and the “Nutsedge plant response rating” value (purple nutsedge; [2]) was 0. For the same molecule, the “Plant response rating, Nutsedge” value (purple nutsedge; [3]) was 0, the “Plant response rating, Nutsedge” value (purple nutsedge; [4]) was 0 and the “Plant response rating, Nutsedge” value (purple nutsedge; [5]) was 0. The “Nutsedge plant response rating” value (purple nutsedge; [6]) was 0, the “Nutsedge plant response rating” value (purple nutsedge; [7]) was 0 and the “Nutsedge plant response rating” value (purple nutsedge; [8]) was 0. The “Ducksalad plant response rating” value (duck salad; [1]) was 0, the “Ducksalad plant response rating” value (duck salad; [9]) was 0 and the “Ducksalad plant response rating” value (duck salad; [10]) was 0. For the same molecule, the “Ducksalad plant response rating” value (duck salad; [11]) was 0, the “S. Flatsedge plant response rating” value (smallflower flatsedge; [1]) was 0 and the “S. Flatsedge plant response rating” value (smallflower flatsedge; [9]) was 0. The “S. Flatsedge plant response rating” value (smallflower flatsedge; [11]) was 0, the “Wheat plant response rating” value (wheat; [1]) was 0 and the “Wheat plant response rating” value (wheat; [2]) was 0. The “Plant response rating, Wheat” value (wheat; [3]) was 0, the “Plant response rating, Wheat” value (wheat; [4]) was 0 and the “Plant response rating, Wheat” value (wheat; [5]) was 0. For the same molecule, the “Wheat plant response rating” value (wheat; [6]) was 0, the “Wheat plant response rating” value (wheat; [7]) was 0 and the “Wild oats plant response rating” value (wild oat; [1]) was 0. The “Wild oats plant response rating” value (wild oat; [2]) was 0, the “Plant response rating, Wild oats” value (wild oat; [4]) was 0 and the “Plant response rating, Wild oats” value (wild oat; [5]) was 0. The “Wild oats plant response rating” value (wild oat; [6]) was 0, the “Wild oats plant response rating” value (wild oat; [7]) was 0 and the “Corn plant response rating” value (corn; [1]) was 0. For the same molecule, the “Corn plant response rating” value (corn; [2]) was 0, the “Plant response rating, Corn” value (corn; [3]) was 0 and the “Plant response rating, Corn” value (corn; [4]) was 0. The “Plant response rating, Corn” value (corn; [5]) was 0, the “Corn plant response rating” value (corn; [6]) was 0 and the “Corn plant response rating” value (corn; [7]) was 0. The “Corn plant response rating” value (corn; [8]) was 0, the “Bedstraw plant response rating” value (bedstraw; [1]) was 0 and the “Bedstraw plant response rating” value (bedstraw; [2]) was 0. The “Plant response rating, Bedstraw” value (bedstraw; [3]) was 0, the “Plant response rating, Bedstraw” value (bedstraw; [4]) was 0 and the “Plant response rating, Bedstraw” value (bedstraw; [5]) was 0. The “Bedstraw plant response rating” value (bedstraw; [6]) was 2, the “Bedstraw plant response rating” value (bedstraw; [7]) was 0 and the “Bedstraw plant response rating” value (bedstraw; [8]) was 2. The “Barnyardgrass plant response rating” value (bamyardgrass; [1]) was 0, the “Barnyardgrass plant response rating” value (bamyardgrass; [9]) was 0 and the “Barnyardgrass plant response rating” value (bamyardgrass; [10]) was 0. For the same molecule, the “Barnyardgrass plant response rating” value (bamyardgrass; [11]) was 0, the “Blackgrass plant response rating” value (blackgrass; [1]) was 0 and the “Blackgrass plant response rating” value (blackgrass; [2]) was 0. For the same molecule, the “Plant response rating, Blackgrass” value (blackgrass; [3]) was 0, the “Plant response rating, Blackgrass” value (blackgrass; [4]) was 0 and the “Plant response rating, Blackgrass” value (blackgrass; [5]) was 0. The “Blackgrass plant response rating” value (blackgrass; [6]) was 1, the “Blackgrass plant response rating” value (blackgrass; [7]) was 0 and the “Blackgrass plant response rating” value (blackgrass; [8]) was 4. For the same molecule, the “B. signalgrass plant response rating” value (surinam grass; [1]) was 0, the “B. signalgrass plant response rating” value (surinam grass; [2]) was 0 and the “Plant response rating, B. signalgrass” value (surinam grass; [3]) was 0. The “Plant response rating, B. signalgrass” value (surinam grass; [4]) was 0, the “Plant response rating, B. signalgrass” value (surinam grass; [5]) was 0 and the “B. signalgrass plant response rating” value (surinam grass; [6]) was 0. The “B. signalgrass plant response rating” value (surinam grass; [7]) was 0, the “B. signalgrass plant response rating” value (surinam grass; [8]) was 0 and the “Velvetleaf plant response rating” value (velvetleaf; [1]) was 0. For the same molecule, the “Velvetleaf plant response rating” value (velvetleaf; [2]) was 0, the “Plant response rating, Velvetleaf” value (velvetleaf; [3]) was 0 and the “Plant response rating, Velvetleaf” value (velvetleaf; [4]) was 0. The “Plant response rating, Velvetleaf” value (velvetleaf; [5]) was 0, the “Velvetleaf plant response rating” value (velvetleaf; [6]) was 0 and the “Velvetleaf plant response rating” value (velvetleaf; [7]) was 0. The “Soybean plant response rating” value (soybean; [1]) was 2, the “Soybean plant response rating” value (soybean; [2]) was 3 and the “Plant response rating, Soybean” value (soybean; [3]) was 0. The “Plant response rating, Soybean” value (soybean; [4]) was 0, the “Plant response rating, Soybean” value (soybean; [5]) was 0 and the “Soybean plant response rating” value (soybean; [6]) was 0. For the same molecule, the “Soybean plant response rating” value (soybean; [7]) was 3, the “Crabgrass plant response rating” value (crabgrass; [1]) was 1 and the “Crabgrass plant response rating” value (crabgrass; [2]) was 2. For the same molecule, the “Plant response rating, Crabgrass” value (crabgrass; [3]) was 0, the “Plant response rating, Crabgrass” value (crabgrass; [4]) was 0 and the “Plant response rating, Crabgrass” value (crabgrass; [5]) was 0. For the same molecule, the “Crabgrass plant response rating” value (crabgrass; [6]) was 0, the “Crabgrass plant response rating” value (crabgrass; [7]) was 2 and the “Crabgrass plant response rating” value (crabgrass; [8]) was 2. For the same molecule, the “Sugarbeets plant response rating” value (sugar beet; [1]) was 0, the “Sugarbeets plant response rating” value (sugar beet; [2]) was 1 and the “Plant response rating, Sugarbeets” value (sugar beet; [3]) was 0. For the same molecule, the “Plant response rating, Sugarbeets” value (sugar beet; [4]) was 0, the “Plant response rating, Sugarbeets” value (sugar beet; [5]) was 0 and the “Sugarbeets plant response rating” value (sugar beet; [6]) was 0. For the same molecule, the “Sugarbeets plant response rating” value (sugar beet; [7]) was 1.
